As a reminder, the IC50 is the concentration that inhibits the measured activity by half. A low value points to inhibition by little substance. The AUC(0-inf) is the area under the concentration-time curve extrapolated to infinity. A lower AUC(0-inf) goes with less exposure. By Vd is commonly meant a proportionality between amount in the body and measured concentration, not a real space. A high value points to extensive tissue distribution. A word on the clearance: it is the rate of elimination divided by the concentration. As a reminder, the half-life is the time in which the quantity being followed falls by half. High values mean slow decline, low ones rapid decline. What is called Cmax is the highest concentration seen after dosing. For orientation: Tmax means the time at which the peak concentration occurs.

This is an account of results in patent publication US12428391B2, “Dimethylsulfoximine derivative” (CISEN PHARMACEUTICAL CO., LTD, priority 2020, dated 2025).

One data set addresses T1, NLRP3 (Homo sapiens, UniProt Q96P20).
T1 construct: endogenous in cells
As to the kind of experiment: IC50 experiment for the detection of NLRP3 antagonist using THP-1 cells (IL-1β secretion, PMA/LPS/ATP). Type of data set: cell-based. The source says:
The chemical names and structural formulas of the compounds of the present disclosure for experimental use are shown in the preparation embodiments for each compound. • 1. Experimental principle: In this experiment, the human monocytic cell line THP1 was used to study the inhibitory activity (IC50) of NLRP3 antagonists on the secretion of IL-1β. The monocytic cell line THP1 was differentiated into mature macrophages using PMA (phorbol 12-myristate 13-acetate), and then the cells were stimulated using LPS (lipopolysaccharide), an agonist of Toll-like receptor TLR4, to activate the transcriptional activity of inflammasome NLRP3 and the expression of IL-1β precursor pro-IL-1β. At this time, the NLRP3 antagonist was added, and then ATP was added to further mature and activate NLRP3, and activate downstream caspase-1. Pro-IL-1β could be enzyme-cleaved by the activated caspase-1 to mature IL-1β that could be secreted.

The nature of data set [1]: Pharmacokinetic evaluation of compounds in mice. It is filed as in vivo. Conditions: C57BL/6J mice. As to the method:
Experimental Objective: To Test the Pharmacokinetics of Compounds in Mice
Experimental Materials: C57BL/6J Mice (Male, 6-8 Weeks Old)
Experimental operation: The clear solution obtained after the test compound was dissolved was administered to […] C57BL/6J mice (overnight fasting, 6-8 weeks old) via tail intravenous injection and intragastric administration (vehicle: 10% DMSO/10% solutol/80% water). After administration of test compound or control compound, blood was collected from the mandibular vein and centrifuged to obtain plasma at 0.0833, 0.25, 0.5, 1, 2, 4, 8 and 24 h for the intravenous injection group (IV) and at 0.25, 0.5, 1, 2, 4, 6, 8 and 24 h for the intragastric administration group (PO). The plasma concentration was determined by LC-MS/MS, and relevant pharmacokinetic parameters were calculated by the non-compartmental model linear logarithmic trapezoidal method using pharmacokinetic software WinNonlin™ Version 6.3. Meaning of each parameter: T1/2: half-life; Cmax: peak concentration; AUC0-inf: area under the plasma concentration-time curve from time 0 extrapolated to infinite time; F: bioavailability, Vd: apparent volume of distribution, Cl: clearance rate, Tmax: time to peak.

Data set [2] relates to MSU-induced Air Pouch acute gout model. Description: MSU-induced Air Pouch acute gout model, IL-6 and IL-1β in APLV. Type of data set: in vivo, C57BL/6 mice. To be noted: for level of IL-1β in APLV after treatment / level of IL-6 in APLV after treatment: MCC950 50 mg/kg po, 7a 50, 15, 5 mg/kg po, dexamethasone 10 mg/kg ip, MSU 3 mg. As to the method:
Experimental Embodiment 3: Evaluation of the Therapeutic Effect of the Compound on the MSU-Induced Air Pouch Acute Gout Model in C57BL/6 Mice
Air Pouch of mouse is a cystic space similar to the human synovial membrane, and the injection of monosodium urate crystals (MSU) into the air pouch will cause an acute inflammatory response similar to human gout. The inflammatory cytokines IL-6 and IL-1β in the Air Pouch Lavage Fluid flushing fluid (APLV) were analyzed, and MCC950 was used as a control compound, and the efficacy of the compound of the present disclosure on the MSU-induced air pouch gout model in male C57BL/6 mice was tested.
On the seventh day, the drug was administered first, and the MSU crystal solution was injected into the air pouch after 1 hour, and the Air Pouch Lavage Fluid (APLV) was collected after 7 hours and analyzed.
1 g of uric acid was dissolved in 0.2 L of boiling water containing 6 mL of 1 N sodium hydroxide; after the pH was adjusted to 7.4, the solution was gradually cooled at room temperature and then left overnight at 4° C. MSU crystals were recovered by centrifugation and evaporated to dryness, dispensed into individual vials (3 mg), and sterilized by autoclaving.
Healthy C57BL/6 mice were numbered and grouped in the experiment, and 5 mL of sterile air was subcutaneously injected into the back of the mice on the same day of grouping (Day 1) and on the fourth day (Day 4) to generate an air pouch. On the seventh day (Day 7), each group of mice was given vehicle or test sample, and after 1 hour the suspension of MSU crystals (saline, 3 mg/mL) was injected into the air pouch. Air Pouch Lavage Fluid (APLV) would be collected after 6 hours, and ELISA kits would be used to test the levels of IL-6 and IL-1β in APLV. Results were expressed as average value±SEM. Statistical analysis was performed by a method of analysis of variance (ANOVA), followed by Dunnett test, and differences were considered significant when p<0.05.

The subject of data set [3] is cryopyrin-associated auto-inflammatory syndrome (cAPS) model. To be noted: mice; cited from earlier work.
The next data set has as its target NLRP3 inflammasome (Homo sapiens, UniProt Q96P20). Conditions: cited from earlier work.
The next data set relates to type II diabete model. To be noted: mice; cited from earlier work.
Data set [4] deals with experimental autoimmune encephalomyelitis (EAE). To be noted: mice; cited from earlier work.
Where [5] appears, read: at the dose of 15 mg/kg and 50 mg/kg po.

T1 sequence (Q96P20 whole entry): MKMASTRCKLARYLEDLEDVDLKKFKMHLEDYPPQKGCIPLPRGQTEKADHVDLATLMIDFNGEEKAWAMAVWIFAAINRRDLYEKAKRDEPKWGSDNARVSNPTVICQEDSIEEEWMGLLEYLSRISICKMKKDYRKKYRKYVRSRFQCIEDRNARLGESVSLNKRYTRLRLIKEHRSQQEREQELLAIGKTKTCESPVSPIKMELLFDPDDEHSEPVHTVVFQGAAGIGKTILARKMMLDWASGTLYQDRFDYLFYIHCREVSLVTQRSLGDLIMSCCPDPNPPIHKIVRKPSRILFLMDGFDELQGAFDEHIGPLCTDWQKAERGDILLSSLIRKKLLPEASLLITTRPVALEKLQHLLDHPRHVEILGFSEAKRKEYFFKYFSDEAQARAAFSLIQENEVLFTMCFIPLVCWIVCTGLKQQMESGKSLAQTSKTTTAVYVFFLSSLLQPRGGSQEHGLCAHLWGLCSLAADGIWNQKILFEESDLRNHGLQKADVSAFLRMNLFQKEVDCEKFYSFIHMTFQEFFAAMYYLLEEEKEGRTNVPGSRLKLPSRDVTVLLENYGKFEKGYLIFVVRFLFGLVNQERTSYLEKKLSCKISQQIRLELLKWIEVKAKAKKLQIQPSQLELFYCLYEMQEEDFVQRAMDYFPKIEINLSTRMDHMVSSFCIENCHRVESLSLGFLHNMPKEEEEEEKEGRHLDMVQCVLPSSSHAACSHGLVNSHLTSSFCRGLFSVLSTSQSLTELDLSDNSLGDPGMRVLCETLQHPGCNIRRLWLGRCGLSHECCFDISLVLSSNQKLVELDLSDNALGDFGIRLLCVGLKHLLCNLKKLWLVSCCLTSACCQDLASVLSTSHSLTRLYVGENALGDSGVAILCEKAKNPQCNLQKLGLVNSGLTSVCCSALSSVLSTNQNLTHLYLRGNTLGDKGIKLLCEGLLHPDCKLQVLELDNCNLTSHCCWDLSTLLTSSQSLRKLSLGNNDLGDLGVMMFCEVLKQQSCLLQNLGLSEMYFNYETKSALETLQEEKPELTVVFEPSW
Sequence of NLRP3 inflammasome (Q96P20 whole entry): as above

Molecule `CS(C)(=O)=Nc1ccc(S(=N)(=O)NC(=O)Nc2c3c(cc4c2CCC4)CCC3)s1` (single isomer, unassigned) [Compound 4a] came in with an IC50 against NLRP3 of 33.9 nM.

At NLRP3, `COc1cc(-c2ccc3c(c2NC(=O)NS(=N)(=O)c2ccc(N=S(C)(C)=O)s2)CCC3)ccn1` (single isomer, unassigned) [Compound 5a] displayed an IC50 of 7.4 nM.

Take `CS(C)(=O)=Nc1cnc(S(=N)(=O)NC(=O)Nc2c3c(cc4c2CCC4)CCC3)s1` (single isomer, unassigned) [Compound 7a]: it took 9.8 nM to reach half-maximal inhibition against NLRP3 (IC50). Also, the F in data set [1] (PO 20 mg/kg vs IV 3 mg/kg) is reported as 67.6%. In data set [1] (mouse, plasma, IV 3 mg/kg), this molecule gave an AUC(0-inf) of 65.7 µM·h, a Vd of 0.25 L/kg, a clearance of 1.68 mL/min/kg and a half-life of 2.1 h. In data set [1] (mouse, plasma, PO 20 mg/kg), the AUC(0-inf) was 296 µM·h, the Cmax was 102 µM and the time to peak (Tmax) turned out to be 0.5 h. Further, in data set [2], the “level of IL-1β in APLV after treatment” value is “decreased rapidly” and the “level of IL-6 in APLV after treatment” value is on record as “decreased rapidly”. In data set [2] (at high, medium and low doses (50, 15, 5 mg/kg po)), the “reducing IL-6 in APLV compared with dexamethasone (10 mg/kg dose)” value was “better than dexamethasone”. Further, in data set [2] (setting [5]), the “reducing IL-1β in APLV compared with MCC950 (50 mg/kg dose)” value is given as “significantly better than that of MCC950”, the “reducing IL-1β in APLV compared with dexamethasone (10 mg/kg)” value is reported as “reaching the same effect as dexamethasone” and the “reducing IL-6 in APLV compared with MCC950 (50 mg/kg dose)” value was “better than MCC950”. The “effect on reducing IL-1β in APLV” value in data set [2] (po, MSU-induced air pouch) is listed as “significant effect”.

Take `O=C(O)c1ccc(/C=C2\SC(=O)N(Cc3cccc(C(F)(F)F)c3)C2=O)cc1` [CY-09]: the “therapeutic effect on cAPS model” value in data set [3] was “significant therapeutic effects”. In addition, the “assembly and activation of NLRP3 inflammasome” value on NLRP3 inflammasome is on record as “specifically blocks”. Also, the “therapeutic effect on type II diabete model” value with type II diabete model is on record as “significant therapeutic effects”.

In turn, `COc1cc(-c2cccc(C(C)C)c2NC(=O)NS(=O)(=O)c2ccc(N=S(C)(C)=O)s2)ccn1` [Compound 2] had an IC50 against NLRP3 of 40 nM.

The molecule `COc1cc(-c2ccc3c(c2NC(=O)NS(=O)(=O)c2ccc(N=S(C)(C)=O)s2)CCC3)ccn1` [Compound 3] had an IC50 at NLRP3 of 10 nM.

For `CS(C)(=O)=Nc1ccc(S(=N)(=O)NC(=O)Nc2c(-c3ccnc(C#N)c3)ccc3c2CCC3)s1` (stereo not drawn) [Compound 8], 27.8 nM corresponded to half-maximal inhibition against NLRP3 (IC50).

In the case of `CC(C)(O)c1coc(S(=O)(=O)NC(=O)Nc2c3c(cc4c2CCC4)CCC3)c1` [MCC950, reference compound], the “severity of experimental autoimmune encephalomyelitis (EAE)” value in data set [4] is given as “reduce the severity”. In data set [2], the “level of IL-1β in APLV after treatment” value is “decreased rapidly” and the “level of IL-6 in APLV after treatment” value is on record as “decreased rapidly”.
